Assay results reported in patent US8835440B2, “Cyclic pyrimidin-4-carboxamides as CCR2 receptor antagonists for treatment of inflammation, asthma and COPD” (Boehringer Ingelheim International GmbH, priority 2008, dated 2014).

Biological target: T1, CCR2 (Homo sapiens, UniProt P41597)
T1 construct: Membranes were prepared from THP-1 cells; endogenous in cells; host or cells: THP-1 cells (membrane preparation)
T1 sequence (P41597 1-360 isoform P41597-2): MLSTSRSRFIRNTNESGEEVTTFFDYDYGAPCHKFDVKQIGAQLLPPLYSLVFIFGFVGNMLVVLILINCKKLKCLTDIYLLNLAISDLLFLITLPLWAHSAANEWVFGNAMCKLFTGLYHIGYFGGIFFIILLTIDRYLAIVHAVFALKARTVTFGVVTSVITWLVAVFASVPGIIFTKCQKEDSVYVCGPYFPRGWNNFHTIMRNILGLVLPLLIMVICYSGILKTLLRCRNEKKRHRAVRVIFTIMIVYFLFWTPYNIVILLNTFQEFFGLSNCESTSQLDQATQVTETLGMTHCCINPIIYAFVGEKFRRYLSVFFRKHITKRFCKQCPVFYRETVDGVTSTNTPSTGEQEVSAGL
Test: CCR2 receptor membrane binding assay ([125I]MCP-1, THP-1 cell membranes, SPA beads)
Conditions: for remaining activity at 10 µM: @ 10 μM test compound, THP-1 membranes, read-out: CCR2 % ctrl @ 10 μM; for Ki: dissociation constant hKi, [125I]MCP-1 binding to THP-1 membranes
Procedure, shortened: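 hKi was derived by iterative law-of-mass-action fitting of scintillation counts read at 8 h. Compound (1% DMSO final) competed with ca. 25000 cpm [125I]MCP-1 for THP-1 membranes bound to WGA-PVT beads. Buffer: 25 mM HEPES pH 7.2, 5 mM MgCl2, 0.5 mM CaCl2, 0.2% BSA.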

| Structure (SMILES) | remaining activity at 10 µM [%] | Ki [µM] |
| --- | --- | --- |
| Cc1c(NCCc2ccc(Cl)c(Cl)c2)ncnc1C(=O)N1CCC(N2CCC[C@H](C(=O)N(C)C)C2)CC1 [Example 177] | 43 | 1.25 |
| Cc1c(NCc2cccc(C(F)(F)F)c2)ncnc1C(=O)N1CCC(N2CCC(O)CC2)CC1 [Example 4] | 43 | 1.59 |
| Cc1c(NCC2CN(c3ccccc3)CCO2)ncnc1C(=O)N1CCC(N2CCC(N(C)S(C)(=O)=O)CC2)CC1 (stereo not drawn) [Example 159s] |  | 1.31 |

The next compounds have a lower Ki than those just listed; values first:

| remaining activity at 10 µM [%] | Ki [µM] | Structure (SMILES) |
| --- | --- | --- |
| 13 | 0.17 | Cc1c(NCc2ccc(Cl)c(Cl)c2)ncnc1C(=O)N1CCC(N2CCC(N3CCCS3(=O)=O)CC2)CC1 [Example 189] |
| 4 | 0.011 | CCS(=O)(=O)N(C)C1CCN(C2CCN(C(=O)c3ncnc(NCc4ccc(C(C)(C)C)cc4)c3C)CC2)CC1 [Example 37] |
